Measured values taken from patent publication US10730874B2 (Shire Human Genetic Therapies, Inc., priority 2018, dated 2020).
pEC50: −log10 of the molar value.

Biological target: human activated kallikrein enzyme (plasma kallikrein) (Homo sapiens (Human), UniProt P03952)
Test: Inhibition of human activated plasma kallikrein, fluorogenic peptide substrate assay, 500 pM enzyme format
Format: biochemical
Conditions: 500 pM activated kallikrein enzyme, 300 uM Pro-Phe-Arg-7-amido-4-methylcoumarin substrate, 30 min preincubation, 10 min at RT; read-out: Primary Dose Response Assay: Average EC50
Method in brief: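 Buffer 20 mM Tris pH 7.5, EDTA, NaCl, PEG-400, Triton X-100; 300 uM Pro-Phe-Arg-AMC; enzyme–inhibitor preincubation 30 min RT. Format one: 500 pM kallikrein, 10 min RT reaction; format two: 5 pM kallikrein, 18 h RT reaction. Fluorescence read at 460 nm (380 nm excitation).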

human activated kallikrein enzyme (plasma kallikrein), sequence (P03952 391-638): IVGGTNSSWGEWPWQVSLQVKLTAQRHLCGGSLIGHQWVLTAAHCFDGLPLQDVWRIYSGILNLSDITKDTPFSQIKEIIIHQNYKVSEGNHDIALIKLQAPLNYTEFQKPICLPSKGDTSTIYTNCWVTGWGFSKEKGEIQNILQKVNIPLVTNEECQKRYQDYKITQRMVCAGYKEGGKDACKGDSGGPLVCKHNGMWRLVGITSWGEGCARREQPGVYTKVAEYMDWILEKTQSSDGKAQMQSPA
human activated kallikrein enzyme (plasma kallikrein), sequence (P03952 20-390 partner): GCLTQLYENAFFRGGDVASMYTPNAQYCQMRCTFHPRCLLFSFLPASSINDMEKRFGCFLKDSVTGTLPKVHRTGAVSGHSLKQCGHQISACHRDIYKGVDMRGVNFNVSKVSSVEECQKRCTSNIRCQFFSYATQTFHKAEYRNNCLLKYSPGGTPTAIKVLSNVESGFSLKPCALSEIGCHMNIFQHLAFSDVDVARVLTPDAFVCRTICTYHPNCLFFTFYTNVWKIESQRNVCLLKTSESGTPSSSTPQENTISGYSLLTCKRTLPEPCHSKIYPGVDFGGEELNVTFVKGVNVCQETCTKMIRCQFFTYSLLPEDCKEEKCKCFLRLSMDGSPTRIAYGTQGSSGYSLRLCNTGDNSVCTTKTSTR

Row | pEC50 | SMILES
1 | > 9.00 | O=C(NCc1ncn2ccc(Cl)c(F)c12)c1cn(Cc2cn3cc(C4CC4)cc(CNCC(O)C(F)(F)F)c3n2)nn1 (stereo not drawn) [Example I-300, N-((7-chloro-8-fluoroimidazo[1,5-a]pyridin-1-yl)methyl)-1-((6-cyclopropyl-8-(((3,3,3-trifluoro-2-hydroxypropyl)amino)methyl)imidazo[1,2-a]pyridin-2-yl)methyl)-1H-1,2,3-triazole-4-carboxamide]
2 | > 9.00 | O=C(NCc1ncn2ccc(Cl)c(F)c12)c1cn(Cc2cn3cc(C4CC4)cc(COCCO)c3n2)nn1 [Example I-301, N-((7-chloro-8-fluoroimidazo[1,5-a]pyridin-1-yl)methyl)-1-((6-cyclopropyl-8-((2-hydroxyethoxy)methyl)imidazo[1,2-a]pyridin-2-yl)methyl)-1H-1,2,3-triazole-4-carboxamide]
3 | > 9.00 | NCCOCc1cc(C2CC2)cn2cc(Cn3cc(C(=O)NCc4ncn5ccc(Cl)c(F)c45)nn3)nc12 [Example I-302, 1-((8-((2-aminoethoxy)methyl)-6-cyclopropylimidazo[1,2-a]pyridin-2-yl)methyl)-N-((7-chloro-8-fluoroimidazo[1,5-a]pyridin-1-yl)methyl)-1H-1,2,3-triazole-4-carboxamide]
4 | > 9.00 | O=C(NCc1ncn2ccc(Br)cc12)c1cn(Cc2cn3cc(C4CC4)ccc3n2)nn1 [Example I-303, N-((7-bromoimidazo[1,5-a]pyridin-1-yl)methyl)-1-((6-cyclopropylimidazo[1,2-a]pyridin-2-yl)methyl)-1H-1,2,3-triazole-4-carboxamide]

Same assay, conditions: comparative compounds (Table II); assay format with 500 pM (500 μM in the source) activated kallikrein; read-out: Primary Dose Response Assay: Average EC50

Row | pEC50 | SMILES
5 | 7.00 to 8.00 | O=C(NCc1ncn2ccc(Cl)cc12)c1ccnc(Cc2ccc3ncc(Cl)cc3c2)c1 [drawing 399, reference compound]
6 | 5.70 to 7.00 | O=C(NCc1ncn2ccc(C3CC3)cc12)c1cnn(Cc2cn3cc(C4CC4)ccc3n2)c1 [drawing 403, reference compound]
7 | 7.00 to 8.00 | COCc1nn(Cc2ccc(Cn3ccccc3=O)cc2)cc1C(=O)NCc1c(F)ccc(OC)c1F [reference compound]
8 | 8.00 to 9.00 | COCc1nn(Cc2ccc(N3CCCC3)nc2)cc1C(=O)NCc1c(-n2cnnn2)ccc(OC)c1F [reference compound]
9 | 8.00 to 9.00 | COCc1nn(Cc2ccc(Cn3ccccc3=O)cc2)cc1C(=O)NCc1c(C#N)ccc(OC)c1F [reference compound]
10 | 7.00 to 8.00 | O=C(NCc1nsc2ccc(Cl)cc12)c1cnn(Cc2cn3cc(C4CC4)ccc3n2)c1 [reference compound]
11 | 5.70 to 7.00 | O=C(NCc1nnc2ccc(Cl)cn12)c1cnn(Cc2cn3cc(C4CC4)ccc3n2)c1 [reference compound]
12 | 5.70 to 7.00 | Cc1ccc2nc(Cn3cc(C(=O)NCc4cnc5ccc(Cl)cn45)cn3)cn2c1 [reference compound]
